Drawing on patent publication EP3925956B1, “1H-INDAZOLE-3-CARBOXAMIDE DERIVATIVES AND RELATED COMPOUNDS AS FACTOR D INHIBITORS FOR TREATING DISEASES CHARACTERIZED BY ABERRANT COMPLEMENT SYSTEM ACTIVITY, SUCH AS E.G. IMMUNOLOGICAL DISORDERS” (BioCryst Pharmaceuticals, Inc., priority 2016, dated 2017), this text covers IC50 for 12 molecules.

In the assay the target is Factor D (Homo sapiens, UniProt P00746). Kind of assay: Factor D esterolytic assay.
Sequence of Factor D (P00746 26-253): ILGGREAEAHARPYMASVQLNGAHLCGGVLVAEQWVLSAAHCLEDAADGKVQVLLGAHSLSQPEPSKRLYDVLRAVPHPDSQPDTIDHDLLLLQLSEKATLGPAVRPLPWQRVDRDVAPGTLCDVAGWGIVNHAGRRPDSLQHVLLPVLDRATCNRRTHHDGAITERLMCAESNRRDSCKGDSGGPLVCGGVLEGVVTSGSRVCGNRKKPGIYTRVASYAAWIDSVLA
Take `C[C@@H](O)[C@H](NC(=O)Cn1nc(C(N)=O)c2ccccc21)C(=O)NCc1cccc(Cl)c1F` [34d, 1-(2-(((2S,3R)-1-((3-chloro-2-fluorobenzyl)amino)-3-hydroxy-1-oxobutan-2-yl)amino)-2-oxoethyl)-1H-indazole-3-carboxamide]: the half-inhibitory concentration (IC50) (as a rule, the point on the concentration scale where inhibition reaches its midpoint) is above 10000 nM.

`Nc1ncnc2c1ccn2CC(=O)N(CC(=O)Nc1cccc(Br)n1)C1CC1` [56d, 2-(4-amino-7H-pyrrolo[2,3-d]pyrimidin-7-yl)-N-(2-((6-bromopyridin-2-yl)amino)-2-oxoethyl)-N-cyclopropylacetamide] registered an IC50 of 1000 to 10000 nM.

For the molecule `CC(C)N(CC(=O)NCc1cccc(Cl)c1F)C(=O)Cn1cc(C#N)c2c(N)ncnc21` [60a, 2-(4-amino-5-cyano-7H-pyrrolo[2,3-d]pyrimidin-7-yl)-N-(2-((3-chloro-2-fluorobenzyl)amino)-2-oxoethyl)-N-isopropylacetamide], the IC50 lay in the range of 1000 to 10000 nM.

Consider `Nc1ncnc2c1ccn2CC(=O)N(CC(=O)NCc1cccc(Cl)c1F)C1CC1` [63a, 2-(4-amino-7H-pyrrolo[2,3-d]pyrimidin-7-yl)-N-(2-((3-chloro-2-fluorobenzyl)amino)-2-oxoethyl)-N-cyclopropylacetamide], for which the concentration for half-maximal inhibition (IC50) is 1000 to 10000 nM.

`CC(C)N(CC(=O)NCc1cccc(Cl)c1F)C(=O)Cn1cc(C(N)=O)c2c(N)ncnc21` [65a, 4-amino-7-(2-((2-((3-chloro-2-fluorobenzyl)amino)-2-oxoethyl)(isopropyl)amino)-2-oxoethyl)-7H-pyrrolo[2,3-d]pyrimidine-5-carboxamide] yielded an IC50 of 1000 to 10000 nM.

Turning to `Nc1ncnc2c1cnn2CC(=O)N(CC(=O)NCc1cccc(Cl)c1F)C1CC1` [68a, 2-(4-amino-1H-pyrazolo[3,4-d]pyrimidin-1-yl)-N-(2-((3-chloro-2-fluorobenzyl)amino)-2-oxoethyl)-N-cyclopropylacetamide], the IC50 lay in the range of 1000 to 10000 nM.

`NC(=O)c1ncnc2c1ccn2CC(=O)N(CC(=O)Nc1cncc(Br)n1)C1CC1` [84a, 7-(2-((2-((6-bromopyrazin-2-yl)amino)-2-oxoethyl)(cyclopropyl)amino)-2-oxoethyl)-7H-pyrrolo[2,3-d]pyrimidine-4-carboxamide]: the IC50 is above 10000 nM.

`NC(=O)c1nn(CC(=O)N(CC(=O)NCc2cccc(Cl)c2F)[C@H]2C[C@@H](O)C2)c2ccccc12` [104b, 1-(2-((2-((3-chloro-2-fluorobenzyl)amino)-2-oxoethyl)((cis)-3-hydroxycyclobutyl)amino)-2-oxoethyl)-1H-indazole-3-carboxamide] had a 50% inhibitory concentration (IC50) below 1000 nM.

On to `NC(=O)c1nn(CC(=O)N(CC(=O)NCc2cccc(Cl)c2F)[C@H]2C[C@H](O)C2)c2ccccc12` [110b, 1-(2-((2-((3-chloro-2-fluorobenzyl)amino)-2-oxoethyl)((trans)-3-hydroxycyclobutyl)amino)-2-oxoethyl)-1H-indazole-3-carboxamide], for which the IC50 is below 1000 nM.

Turning to `CC(=O)c1cn(CC(=O)N(CC(=O)NCc2cccc(Cl)c2F)[C@H]2C[C@H](O)C2)c2ccc(Nc3cncnc3)cc12` [114a, 2-(3-acetyl-5-(pyrimidin-5-ylamino)-1H-indol-1-yl)-N-(2-((3-chloro-2-fluorobenzyl)amino)-2-oxoethyl)-N-((trans)-3-hydroxycyclobutyl)acetamide], the half-inhibitory concentration (IC50) is below 1000 nM.

For the molecule `CC(=O)c1cn(CC(=O)N(CC(=O)NCc2cccc(Cl)c2F)C(C)C)c2ccc(C#Cc3cccnc3)cc12` [131a, 2-(3-acetyl-5-(pyridin-3-ylethynyl)-1H-indol-1-yl)-N-(2-((3-chloro-2-fluorobenzyl)amino)-2-oxoethyl)-N-isopropylacetamide], the concentration for half-maximal inhibition (IC50) is below 1000 nM.

The molecule `CC(C)(C)OC(=O)N[C@H]1C[C@@H](N(CC(=O)NCc2cccc(Cl)c2F)C(=O)Cn2nc(C(N)=O)c3ccccc32)C1` [152b, tert-butyl ((cis)-3-(2-(3-carbamoyl-1H-indazol-1-yl)-N-(2-((3-chloro-2-fluorobenzyl)amino)-2-oxoethyl)acetamido)cyclobutyl)carbamate] returned an IC50 below 1000 nM.
